Earlier results as cited in PMC2864424 (Current Chemical Genomics, 2010).

Legend:
[1] = system: OATP1B1; conditions: cited from earlier work
[2] = system: OATP1B3; conditions: concentrations up to 10 μM; cited from earlier work

SMILES: CC1(C)C(/C=C/C=C/C=C/C=C2\N(CCCCS(=O)(=O)O)c3ccc4ccccc4c3C2(C)C)=[N+](CCCCS(=O)(=O)[O-])c2ccc3ccccc3c21 [indocyanine green]
- effect on OATP1B1-mediated estradiol-17β-glucuronide transport [1]: specific inhibitor
- effect on OATP1B3-mediated estradiol-17β-glucuronide transport [2]: not affecting
